Here are results for four compounds from patent US20210355105A1, “REGULATOR OF NITROGEN-CONTAINING HETEROAROMATIC DERIVATIVES, PREPARATION METHOD THEREFOR AND USE THEREOF” (Jiangsu Hansoh Pharmaceutical Group Co., Ltd., priority 2018, published 2021).

pIC50: −log10 of the molar value.

A short description of data set [1]: Pharmacokinetics assay in mice, oral administration. Format: in vivo. The note with it: mouse; male Balb/c mice, oral 5 mg/kg, plasma. How it is done:
(§1) Balb/c mice were used as test animals.
5 g of hydroxyethyl cellulose (HEC, CMC-Na, viscosity: 800-1200 Cps) was dissolved in 1000 mL of purified water, and 10 g of Tween80 was added. The solution was mixed well to form a clear solution. […] The solution was subjected to ultrasound for 10 minutes to obtain a colorless and clear solution with a concentration of 0.5 mg/mL.
After an overnight fast, male Balb/c mice were administrated orally with the test compounds at an administration dose of 5 mg/kg and an administration volume of 10 mL/kg.
Blood was taken before administration and at 0.25 hour, 0.5 hour, 1 hour, 2 hours, 4 hours, 6 hours, 8 hours and 24 hours after administration. The blood samples were stored in EDTA-2K tubes, and centrifuged for 6 minutes at 6000 rpm, at 4° C. to separate the blood plasma. The plasma samples were stored at −80° C. The mice were fed four hours after administration.

Data set [2] addresses T1, SHP-2 full-length protein (Homo sapiens, UniProt Q06124).
T1 construct: purchased BPS Bioscience 79330
T1 sequence (Q06124 1-593): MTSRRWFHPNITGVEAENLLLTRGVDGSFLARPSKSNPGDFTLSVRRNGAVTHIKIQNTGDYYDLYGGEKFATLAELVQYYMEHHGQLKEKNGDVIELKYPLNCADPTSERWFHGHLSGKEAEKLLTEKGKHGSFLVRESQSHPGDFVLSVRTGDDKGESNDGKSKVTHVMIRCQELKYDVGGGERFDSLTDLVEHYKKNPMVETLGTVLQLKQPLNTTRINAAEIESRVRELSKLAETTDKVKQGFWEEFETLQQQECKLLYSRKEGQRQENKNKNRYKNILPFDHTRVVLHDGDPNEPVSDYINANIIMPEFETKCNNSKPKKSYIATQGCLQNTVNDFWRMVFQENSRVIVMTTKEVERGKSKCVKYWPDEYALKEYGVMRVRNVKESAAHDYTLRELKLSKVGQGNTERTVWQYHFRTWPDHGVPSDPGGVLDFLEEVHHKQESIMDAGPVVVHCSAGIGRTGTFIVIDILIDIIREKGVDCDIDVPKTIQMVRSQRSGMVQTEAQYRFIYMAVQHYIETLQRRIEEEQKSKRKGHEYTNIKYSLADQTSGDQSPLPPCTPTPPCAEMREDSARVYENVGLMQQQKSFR
The data set can be described thus: Inhibition of SHP-2 kinase activity (Homogeneous Full Length SHP-2 Assay Kit). Format: biochemical. The note with it: relative IC50, full-length SHP-2 with activating peptide. How it is done:
The objective of this test is to determine the inhibitory effect of the compounds on SHP-2 full-length protein allosteric activity.
Experimental method: Homogeneous Full Length SHP-2 Assay Kit (BPS Bioscience, #79330) was used to determine the in vitro SHP-2 activity. First, 18 μL of Master Mix was added to a 96-well low adsorption microplate (NUNC, #267342), i.e., the reaction buffer with a final concentration of 1× comprised 0.5 μM SHP-2 activating Peptide and 5 mM DTT. After centrifugation, 5 μL of test compound/DMSO was added to each well (the final DMSO content was 1%, V/V, the test compound was dissolved in DMSO to 1 mM, a three-fold serial dilution was carried out to obtain ten concentrations, the final concentration of the reaction system ranged from 1 μM to 0.05 nM). SHP-2 was diluted in the 1× reaction buffer to a final concentration of 0.06 nM, and the resulting solution was added to the reaction microplate (2 μL per well). Full activity control (compound only with DMSO) and full inhibition control (no SHP-2) were set up on the reaction plate. After centrifugation, the reaction mixture was incubated at room temperature for 60 minutes.
After completion of the incubation, 25 μL of Substrate solution, which comprised Substrate with a final concentration of 10 μM and 5 mM DTT, was added to each well. After centrifugation, the reaction mixture was incubated at room temperature for 30 minutes. After completion of the reaction, readings were measured on the Synergy H1 full-function microplate reader (BioTek) (excitation wavelength: 340 nm, emission wavelength: […], gain value: 75).
The IC50 value of the test compounds was calculated by fitting the percentage inhibition rate and data of ten concentrations to a four-parameter nonlinear logic formula with GraphPad prism.

A further data set can be described thus: Tolerance assay in mice. The conditions noted are these: 10 mg/kg QD oral. Type of data set: in vivo, Balb/c mice. The procedure:
as §1
The solution was subjected to ultrasound for 10 minutes to obtain a colorless and clear solution with a concentration of 1 mg/mL.
After an overnight fast, Balb/c mice (3 male and 3 female) were administrated orally with the test compound at an administration dose of 10 mg/kg and an administration volume of 10 mL/kg.
The mice were weighed daily before and after administration, and abnormal responses were observed. The mice were fed four hours after administration.

Data set [3] can be described thus: Pharmacokinetics assay in mice, single intravenous injection. Format: in vivo. The note with it: male Balb/c mice. The procedure: as §1
The solution was subjected to ultrasound to obtain a clear solution. The solution was filtered with a 0.22 μm water filter, and the filtrate was the formulation for intravenous administration (i.v.). The concentration was 0.2 mg/mL.
After an overnight fast, male Balb/c mice were administered intravenously with the test compounds at an administration dose of 1 mg/kg and an administration volume of 5 mL/kg.
Blood was taken before administration and at 0 minute, 5 minutes, 15 minutes, 0.5 hour, 1.0 hour, 2.0 hours, 4.0 hours, 8.0 hours and 24.0 hours after administration. The blood samples were stored in EDTA-2K tubes, and centrifuged for 6 minutes at 6000 rpm, at 4° C. to separate the blood plasma. The plasma samples were stored at −80° C. The mice were fed four hours after administration.

The mark [4] stands for this setting: mouse, iv, i.v. 1 mg/kg, plasma.

Broadly, the AUC(0-inf) is total exposure, with the tail of the curve extrapolated. High values mean more exposure, low ones less exposure. What is called Cmax is the highest concentration seen after dosing. As usually defined, the MRT is the average time that molecules of a dose stay in the body. As a reminder, the Tmax is the time from dosing to the highest level. Broadly, the half-life is the time needed for the level to fall by half in the phase considered. Low readings indicate rapid decline, high ones slow decline. The pIC50 is the IC50 on a negative log10 scale, so that one unit is a factor of ten. On to `Cc1nc(N2CCC3(CC2)Cc2ncsc2[C@H]3N)c(CO)nc1Sc1ccnc(N)c1Cl` [Example 171, (S)-(6-((2-amino-3-chloropyridin-4-yl)thio)-3-(6-amino-4,6-dihydrospiro[cyclopenta[d]thiazole-5,4′-piperidin]-1′-yl)-5-methylpyrazin-2-yl)methanol], for which, in data set [1], the AUC(0-inf) was found to be 2210 ng·h/mL, the concentration peaked (Cmax) at 475 ng/mL, the MRT worked out at 4.34 h and the Tmax worked out at 0.5 h. This compound had a half-life in data set [1] of 3.07 h. The negative-log IC50 (pIC50) in data set [2] was 8.76.
As a reminder, the clearance is the rate of elimination divided by the concentration. Low readings indicate inefficient removal, high ones efficient removal. As to `Nc1nc(N2CCC3(CC2)Cc2ccccc2[C@H]3N)c(F)nc1Sc1ccnc(N)c1Cl` [Example 179, (S)-1′-(6-amino-5-((2-amino-3-chloropyridin-4-yl)thio)-3-fluoropyrazin-2-yl)-1,3-dihydrospiro[indene-2,4′-piperidin]-1-amine], in the data set “Tolerance assay in mice” (female mice), the “Body weight (Mean) Day 1” value worked out at 22.07 g, the “Body weight (Mean) Day 16” value came out at 25.09 g and the “Body weight changes ΔW/W1 (Mean) Day 16” value came out at 13.80%. In addition, in “Tolerance assay in mice” (male mice), the “Body weight (Mean) Day 1” value is listed as 23.01 g, the “Body weight (Mean) Day 16” value is 28.30 g and the “Body weight changes ΔW/W1 (Mean) Day 16” value came to 23.25%. In addition, in data set [1], the AUC(0-inf) was 2440 ng·h/mL, the peak concentration (Cmax) worked out at 179 ng/mL, the MRT stood at 7.92 h and the Tmax was determined as 0.5 h. The half-life in data set [1] is 5.23 h. In addition, in data set [2], the pIC50 was 8.76. Moreover, the F in data set [3] (printed in the i.v. 1 mg/kg table) stood at 71%. Further, in data set [3] (setting [4]), the area under the curve AUC(0-inf) is 736 ng·h/mL, the C0 was 264 ng/mL, the MRT amounted to 9.04 h and the clearance turned out to be 22.6 mL/min/kg. This compound also had a half-life in data set [3] (setting [4]) of 7.74 h. For the same compound, the Vd in data set [3] (mouse, iv, i.v. 1 mg/kg, plasma, read-out: Vss) came out at 12.3 L/kg.
Turning to `Nc1nccc(Sc2cnc(N3CCC4(CC=C(C5CC5)[C@H]4N)CC3)cn2)c1Cl` [Example 144, (S)-8-(5-((2-amino-3-chloropyridin-4-yl)thio)pyrazin-2-yl)-2-cyclopropyl-8-azaspiro[4.5]dec-2-en-1-amine], in data set [1], the AUC(0-inf) worked out at 5390 ng·h/mL, the peak level (Cmax) was 436 ng/mL, the MRT stood at 9.08 h and the Tmax came out at 1 h. Besides, the pIC50 in data set [2] was 8.83.
Turning to `Nc1nc(N2CCC3(CC2)Cc2ncsc2[C@H]3N)c(F)nc1Sc1ccnc(N)c1Cl` [Example 181, (S)-1′-(6-amino-5-((2-amino-3-chloropyridin-4-yl)thio)-3-fluoropyrazin-2-yl)-4,6-dihydrospiro[cyclopenta[d]thiazole-5,4′-piperidin]-6-amine], in data set [1], the AUC(0-inf) was determined as 8160 ng·h/mL, the peak level (Cmax) was 1380 ng/mL, the mean residence time MRT was determined as 5.07 h and the Tmax stood at 0.5 h. The half-life in data set [1] was 4.63 h. Moreover, in data set [2], the negative logarithm of the IC50 (pIC50) was 8.51.
